# Laboratory results as given in ChEMBL document CHEMBL4261621, “Synthesis of enamino-2-oxindoles via conjugate addition between α-azido ketones and 3-alkenyl oxindoles: Cytotoxicity evaluation and apoptosis inducing studies” (Bioorg Med Chem Lett, 2018).
# pIC50: −log10 of the molar value. Active and inactive are the calls of the source. No cut-off for these calls is given here.
# What was measured:
# [1] = tested on: NCI-H460; experiment: Cell cycle arrest in human NCI-H460 cells assessed as accumulation at S phase at 10 uM after 24 hrs by propidium iodide staining based flow cytometry (reference value: 9.93%); format: functional
# [2] = tested on: HCT-15; experiment: Cytotoxicity against human HCT15 cells after 72 hrs by MTT assay; format: functional, cell-based; conditions: HCT-15, 72 h
# [3] = tested on: NCI-H460; experiment: Induction of morphological changes in human NCI-H460 cells assessed as cell shrinkage after 72 hrs by phase contrast microscopic analysis; format: functional, cell-based
# [4] = tested on: NCI-H460; experiment: Induction of apoptosis in human NCI-H460 cells assessed as early apoptotic cells at 2.5 uM after 72 hrs by Annexin V-alexa fluor 488/propidium iodide staining based flow cytometry (reference value: 0.77%); format: functional
# [5] = tested on: NCI-H460; experiment: Induction of mitochondrial membrane potential loss in human NCI-H460 cells assessed as increase in depolarized cell population after 72 hrs by JC1 staining based flow cytometry; format: functional
# [6] = tested on: MDA-MB-231; experiment: Cytotoxicity against human MDA-MB-231 cells after 72 hrs by MTT assay; format: functional, cell-based; conditions: MDA-MB-231, 72 h
# [7] = tested on: NCI-H460; experiment: Cell cycle arrest in human NCI-H460 cells assessed as accumulation at G2/M phase at 1 uM after 24 hrs by propidium iodide staining based flow cytometry (reference value: 35.49%); format: functional
# [8] = tested on: A549; experiment: Cytotoxicity against human A549 cells after 72 hrs by MTT assay; format: functional, cell-based; conditions: A549, 72 h
# [9] = tested on: NCI-H460; experiment: Induction of apoptosis in human NCI-H460 cells assessed as appearance of condensed nuclei at 0.25 to 10 uM after 72 hrs by DAPI staining based fluorescence microscopic analysis; format: functional, cell-based
# [10] = tested on: HeLa; experiment: Cytotoxicity against human HeLa cells after 72 hrs by MTT assay; format: functional, cell-based
# [11] = tested on: NCI-H460; experiment: Cytotoxicity against human NCI-H460 cells at 30 uM after 48 hrs by MTT assay relative to control; format: functional
# [12] = tested on: NCI-H460; experiment: Induction of apoptosis in human NCI-H460 cells assessed as late apoptotic cells at 5 uM after 72 hrs by Annexin V-alexa fluor 488/propidium iodide staining based flow cytometry (reference value: 0.34%); format: functional
# [13] = tested on: NCI-H460; experiment: Induction of apoptosis in human NCI-H460 cells assessed as viable cells at 2.5 uM after 72 hrs by Annexin V-alexa fluor 488/propidium iodide staining based flow cytometry (reference value: 98.55%); format: functional; conditions: NCI-H460, 72 h, read-out: Activity
# [14] = tested on: MDA-MB-231; experiment: Cytotoxicity against human MDA-MB-231 cells at 30 uM after 48 hrs by MTT assay relative to control; format: functional
# [15] = tested on: NCI-H460; experiment: Induction of apoptosis in human NCI-H460 cells assessed as late apoptotic cells at 2.5 uM after 72 hrs by Annexin V-alexa fluor 488/propidium iodide staining based flow cytometry (reference value: 0.34%); format: functional
# [16] = tested on: NCI-H460; experiment: Induction of apoptosis in human NCI-H460 cells assessed as necrotic cells at 10 uM after 72 hrs by Annexin V-alexa fluor 488/propidium iodide staining based flow cytometry (reference value: 0.34%); format: functional
# [17] = tested on: NCI-H460; experiment: Cytotoxicity against human NCI-H460 cells after 72 hrs by MTT assay; format: functional, cell-based; conditions: NCI-H460, 72 h
# [18] = tested on: HCT-15; experiment: Cytotoxicity against human HCT15 cells at 30 uM after 48 hrs by MTT assay relative to control; format: functional
# [19] = tested on: NCI-H460; experiment: Inhibition of colony formation in human NCI-H460 cells supplemented with fresh medium containing compounds every 3 days measured after 7 days by crystal violet staining based assay; format: functional, cell-based
# [20] = tested on: NCI-H460; experiment: Induction of apoptosis in human NCI-H460 cells assessed as cell shrinkage at 0.25 to 10 uM after 72 hrs by acridine orange/ethidium bromide staining based fluorescence microscopic analysis; format: functional
# [21] = tested on: NCI-H460; experiment: Induction of apoptosis in human NCI-H460 cells assessed as late apoptotic cells at 10 uM after 72 hrs by Annexin V-alexa fluor 488/propidium iodide staining based flow cytometry (reference value: 0.34%); format: functional
# [22] = tested on: NCI-H460; experiment: Induction of mitochondrial membrane potential loss in human NCI-H460 cells assessed as depolarized cell population at 2.5 uM after 72 hrs by JC1 staining based flow cytometry (reference value: 11.63%); format: functional
# [23] = tested on: NCI-H460; experiment: Induction of apoptosis in human NCI-H460 cells assessed as early apoptotic cells at 10 uM after 72 hrs by Annexin V-alexa fluor 488/propidium iodide staining based flow cytometry (reference value: 0.77%); format: functional
# [24] = tested on: NCI-H460; experiment: Cytotoxicity against human NCI-H460 cells assessed as reduction in cell viability after 72 hrs by phase contrast microscopic analysis; format: functional, cell-based
# [25] = tested on: NCI-H460; experiment: Cell cycle arrest in human NCI-H460 cells assessed as accumulation at G0/G1 phase at 1 uM after 24 hrs by propidium iodide staining based flow cytometry (reference value: 49.6%); format: functional
# [26] = tested on: NCI-H460; experiment: Induction of apoptosis in human NCI-H460 cells assessed as apoptotic body formation at 0.25 to 10 uM after 72 hrs by acridine orange/ethidium bromide staining based fluorescence microscopic analysis; format: functional, cell-based
# [27] = tested on: NCI-H460; experiment: Cell cycle arrest in human NCI-H460 cells assessed as accumulation at G0/G1 phase at 5 uM after 24 hrs by propidium iodide staining based flow cytometry (reference value: 49.6%); format: functional
structure (smiles),measurement,setting,value
CCOC(=O)/C(=C(\N)C(=O)c1ccccc1)C1C(=O)N(C)c2ccc(F)cc21 (configuration not stated),Activity,[1],3.42%
same,pIC50,[2],5.53
same,Activity,[3],Dose-dependent effect
same,Activity,[4],19.4%
same,Activity,[5],Dose-dependent effect
same,pIC50,[6],5.20
same,Activity,[7],61.59%
same,pIC50,[8],5.45
same,Activity,[9],Active
same,pIC50,[10],5.52
same,Activity,[11],>50%
same,Activity,[12],3.27%
same,viability at 2.5 µM,[13],75.9%
same,Activity,[14],>50%
same,Activity,[15],4.4%
same,Activity,[16],0.03%
same,pIC50,[17],5.85
same,Activity,[18],>50%
same,inhibition,[19],Dose-dependent effect
same,Activity,[20],Active
same,Activity,[21],1.78%
same,Activity,[22],71.6%
same,Activity,[23],57.78%
same,Activity,[24],Dose-dependent effect
same,Activity,[25],9.77%
same,Activity,[26],Active
same,Activity,[27],11.17%
